Laboratory results taken from PubChem BioAssay (NCI).
Where “and” joins values, the source holds several entries; their conditions need not be identical. Identical values can stand only once.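 Cells were grown in 96-well plates and exposed to each compound for 48 hours at five concentrations; endpoints were interpolated linearly between bracketing concentrations, or set to the highest concentration if not reached. GI50: concentration for 50% inhibition of growth. Definition used: TGI = concentration required for complete inhibition of growth.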

Columns and labels:
Assay in all cases: DTP human tumour cell line panel, 48 h; in the data active means GI50 below about 0.43 µM; inactive means the rest
XF 498 CNS = test system: XF 498 CNS
LOX IMVI melanoma = test system: LOX IMVI melanoma
A549 NSCLC = test system: A549 NSCLC
MALME-3M melanoma = test system: MALME-3M melanoma
DMS 114 small cell lung = test system: DMS 114 small cell lung
HCT-116 colon = test system: HCT-116 colon
RPMI-8226 leukemia = test system: RPMI-8226 leukemia
UO-31 renal = test system: UO-31 renal
SNB-78 CNS = test system: SNB-78 CNS
OVCAR-3 ovarian = test system: OVCAR-3 ovarian
HOP-18 NSCLC = test system: HOP-18 NSCLC
DLD-1 colon = test system: DLD-1 colon
SK-MEL-5 melanoma = test system: SK-MEL-5 melanoma
HT29 colon = test system: HT29 colon
RXF-631 renal = test system: RXF-631 renal
LXFL 529 NSCLC = test system: LXFL 529 NSCLC
SK-OV-3 ovarian = test system: SK-OV-3 ovarian
CCRF-CEM leukemia = test system: CCRF-CEM leukemia
SW-620 colon = test system: SW-620 colon
HOP-92 NSCLC = test system: HOP-92 NSCLC
NCI-H522 lung = test system: NCI-H522 lung
OVCAR-5 ovarian = test system: OVCAR-5 ovarian
HCC-2998 colon = test system: HCC-2998 colon
HCT-15 colon = test system: HCT-15 colon
786-0 renal = test system: 786-0 renal
A498 renal = test system: A498 renal
SNB-19 CNS = test system: SNB-19 CNS
HL-60(TB) leukemia = test system: HL-60(TB) leukemia
K-562 leukemia = test system: K-562 leukemia
SF-268 CNS = test system: SF-268 CNS
OVCAR-8 ovarian = test system: OVCAR-8 ovarian
TK-10 renal = test system: TK-10 renal
U251 CNS = test system: U251 CNS
SK-MEL-2 melanoma = test system: SK-MEL-2 melanoma
COLO 205 colon = test system: COLO 205 colon
NCI-H460 lung = test system: NCI-H460 lung
MOLT-4 leukemia = test system: MOLT-4 leukemia
NCI-H226 lung = test system: NCI-H226 lung
SN12C renal = test system: SN12C renal
SF-295 CNS = test system: SF-295 CNS
EKVX NSCLC = test system: EKVX NSCLC
M14 melanoma = test system: M14 melanoma
HOP-62 NSCLC = test system: HOP-62 NSCLC
OVCAR-4 ovarian = test system: OVCAR-4 ovarian
UACC-257 melanoma = test system: UACC-257 melanoma
CAKI-1 renal = test system: CAKI-1 renal
UACC-62 melanoma = test system: UACC-62 melanoma
KM12 colon = test system: KM12 colon
SK-MEL-28 melanoma = test system: SK-MEL-28 melanoma
KM20L2 colon = test system: KM20L2 colon
ACHN renal = test system: ACHN renal
NCI-H23 lung = test system: NCI-H23 lung
SF-539 CNS = test system: SF-539 CNS
SR leukemia = test system: SR leukemia
RXF 393 renal = test system: RXF 393 renal
DMS 273 small cell lung = test system: DMS 273 small cell lung
M19-MEL melanoma = test system: M19-MEL melanoma
IGROV1 ovarian = test system: IGROV1 ovarian
SNB-75 CNS = test system: SNB-75 CNS

C=C(C)C1CC=C(C)CC1 (stereo unspecified)
> 100 µM and 1570 µM: TGI (NCI-H226 lung) | TGI (ACHN renal)
> 100 µM and 1610 µM: TGI (DLD-1 colon)
> 100 µM and 1790 µM: TGI (A549 NSCLC)
> 100 µM and 2420 µM: TGI (OVCAR-5 ovarian)
> 100 µM: TGI (RPMI-8226 leukemia) | TGI (HOP-18 NSCLC)
> 100 µM and 1720 µM: TGI (XF 498 CNS) | TGI (RXF-631 renal) | TGI (HL-60(TB) leukemia) | TGI (K-562 leukemia) | TGI (SK-MEL-2 melanoma) | TGI (DMS 273 small cell lung)
> 100 µM and 1630 µM: TGI (SF-295 CNS) | TGI (HOP-62 NSCLC)
> 100 µM and 1560 µM: TGI (SK-MEL-5 melanoma)
> 100 µM and 1680 µM: TGI (SF-268 CNS) | TGI (CAKI-1 renal) | TGI (SK-MEL-28 melanoma)
> 100 µM and 1830 µM: TGI (EKVX NSCLC) | TGI (KM12 colon) | TGI (IGROV1 ovarian)
> 100 µM and 2070 µM: TGI (OVCAR-4 ovarian)
> 100 µM and 1590 µM: TGI (OVCAR-3 ovarian) | TGI (SW-620 colon)
> 100 µM and 1760 µM: TGI (TK-10 renal) | TGI (COLO 205 colon)
> 100 µM and 1620 µM: TGI (LOX IMVI melanoma) | TGI (HCT-116 colon) | TGI (UO-31 renal) | TGI (786-0 renal)
> 100 µM and 1650 µM: TGI (DMS 114 small cell lung)
> 100 µM and 2180 µM: TGI (MOLT-4 leukemia)
> 100 µM and 1700 µM: TGI (M14 melanoma)
1610 µM: TGI (A498 renal)
> 100 µM and 1480 µM: TGI (U251 CNS)
> 100 µM and 2050 µM: TGI (SR leukemia)
> 100 µM and 1670 µM: TGI (CCRF-CEM leukemia)
> 100 µM and 1530 µM: TGI (HOP-92 NSCLC)
> 100 µM and 1690 µM: TGI (MALME-3M melanoma) | TGI (NCI-H23 lung) | TGI (SF-539 CNS)
> 100 µM and 1640 µM: TGI (SN12C renal)
> 100 µM and 1900 µM: TGI (SK-OV-3 ovarian)
inactive: GI50 (XF 498 CNS) > 100 µM | GI50 (LOX IMVI melanoma) > 100 µM | GI50 (A549 NSCLC) > 100 µM | GI50 (MALME-3M melanoma) > 100 µM | GI50 (DMS 114 small cell lung) > 100 µM | GI50 (HCT-116 colon) > 100 µM | GI50 (UO-31 renal) > 100 µM | GI50 (SNB-78 CNS) > 100 µM | GI50 (OVCAR-3 ovarian) > 100 µM | GI50 (DLD-1 colon) > 100 µM | GI50 (SK-MEL-5 melanoma) > 100 µM | GI50 (HT29 colon) > 100 µM | GI50 (RXF-631 renal) > 100 µM | GI50 (LXFL 529 NSCLC) > 100 µM | GI50 (SK-OV-3 ovarian) > 100 µM | GI50 (CCRF-CEM leukemia) > 100 µM | GI50 (SW-620 colon) > 100 µM | GI50 (HOP-92 NSCLC) > 100 µM | GI50 (NCI-H522 lung) > 100 µM | GI50 (OVCAR-5 ovarian) > 100 µM | GI50 (HCC-2998 colon) > 100 µM | GI50 (786-0 renal) > 100 µM | GI50 (SNB-19 CNS) > 100 µM | GI50 (HL-60(TB) leukemia) > 100 µM | GI50 (K-562 leukemia) > 100 µM | GI50 (SF-268 CNS) > 100 µM | GI50 (OVCAR-8 ovarian) > 100 µM | GI50 (TK-10 renal) > 100 µM | GI50 (U251 CNS) > 100 µM | GI50 (SK-MEL-2 melanoma) > 100 µM | GI50 (COLO 205 colon) > 100 µM | GI50 (NCI-H460 lung) > 100 µM | GI50 (MOLT-4 leukemia) > 100 µM | GI50 (NCI-H226 lung) > 100 µM | GI50 (SN12C renal) > 100 µM | GI50 (SF-295 CNS) > 100 µM | GI50 (EKVX NSCLC) > 100 µM | GI50 (M14 melanoma) > 100 µM | GI50 (HOP-62 NSCLC) > 100 µM | GI50 (OVCAR-4 ovarian) > 100 µM | GI50 (UACC-257 melanoma) > 100 µM | GI50 (CAKI-1 renal) > 100 µM | GI50 (UACC-62 melanoma) > 100 µM | GI50 (KM12 colon) > 100 µM | GI50 (SK-MEL-28 melanoma) > 100 µM | GI50 (KM20L2 colon) > 100 µM | GI50 (ACHN renal) > 100 µM | GI50 (NCI-H23 lung) > 100 µM | GI50 (SF-539 CNS) > 100 µM | GI50 (SR leukemia) > 100 µM | GI50 (RXF 393 renal) > 100 µM | GI50 (DMS 273 small cell lung) > 100 µM | GI50 (M19-MEL melanoma) > 100 µM | GI50 (IGROV1 ovarian) > 100 µM | GI50 (SNB-75 CNS) > 100 µM
> 100 µM and 1550 µM: TGI (LXFL 529 NSCLC) | TGI (UACC-62 melanoma)
1620 µM: TGI (HCT-15 colon)
> 100 µM and 1580 µM: TGI (M19-MEL melanoma)
> 100 µM and 1960 µM: TGI (SNB-78 CNS)
> 100 µM and 1870 µM: TGI (SNB-19 CNS)
> 100 µM and 1710 µM: TGI (NCI-H522 lung) | TGI (SNB-75 CNS)
> 100 µM and 1850 µM: TGI (UACC-257 melanoma)
> 100 µM and 1750 µM: TGI (KM20L2 colon)
> 100 µM and 1860 µM: TGI (OVCAR-8 ovarian)
> 100 µM and 1730 µM: TGI (HT29 colon) | TGI (HCC-2998 colon) | TGI (NCI-H460 lung) | TGI (RXF 393 renal)

COC(=O)NN1C(C)=C(C(=O)OC)C2(C#N)C(C(=O)OC)=C(C)N(NC(=O)OC)C12N (stereo unspecified)
> 100 µM: TGI (XF 498 CNS) | TGI (LOX IMVI melanoma) | TGI (A549 NSCLC) | TGI (MALME-3M melanoma) | TGI (DMS 114 small cell lung) | TGI (HCT-116 colon) | TGI (RPMI-8226 leukemia) | TGI (UO-31 renal) | TGI (SNB-78 CNS) | TGI (HOP-18 NSCLC) | TGI (DLD-1 colon) | TGI (HT29 colon) | TGI (RXF-631 renal) | TGI (LXFL 529 NSCLC) | TGI (SK-OV-3 ovarian) | TGI (CCRF-CEM leukemia) | TGI (SW-620 colon) | TGI (HOP-92 NSCLC) | TGI (NCI-H522 lung) | TGI (OVCAR-5 ovarian) | TGI (HCC-2998 colon) | TGI (HCT-15 colon) | TGI (786-0 renal) | TGI (A498 renal) | TGI (SNB-19 CNS) | TGI (HL-60(TB) leukemia) | TGI (K-562 leukemia) | TGI (SF-268 CNS) | TGI (OVCAR-8 ovarian) | TGI (TK-10 renal) | TGI (U251 CNS) | TGI (SK-MEL-2 melanoma) | TGI (COLO 205 colon) | TGI (NCI-H460 lung) | TGI (MOLT-4 leukemia) | TGI (NCI-H226 lung) | TGI (SN12C renal) | TGI (EKVX NSCLC) | TGI (M14 melanoma) | TGI (HOP-62 NSCLC) | TGI (OVCAR-4 ovarian) | TGI (UACC-257 melanoma) | TGI (CAKI-1 renal) | TGI (UACC-62 melanoma) | TGI (SK-MEL-28 melanoma) | TGI (KM20L2 colon) | TGI (ACHN renal) | TGI (NCI-H23 lung) | TGI (SF-539 CNS) | TGI (DMS 273 small cell lung) | TGI (M19-MEL melanoma) | TGI (IGROV1 ovarian)
